# Test results as given in ChEMBL document CHEMBL1201862, “PubChem BioAssay data set” (2004).
# Activity calls are given as the source filed them. Unless noted, the calls are words filed in the database; no cut-off is given here.
# Experiments:
# [1] = Fluorescence polarization-based biochemical high throughput dose response assay for activators of the Protein Kinase A-R2B (PKA-R2B) complex. [Related pubchem assays (depositor defined):AID504700, AID504704, AID504796, AID504797]
# [2] = Fluorescence polarization-based biochemical high throughput dose response assay for activators of the Protein Kinase A-R1A (PKA-R1A) complex. [Related pubchem assays (depositor defined):AID504704, AID504707, AID504799, AID504800]
# [3] = biological target: Trypsin (Sus scrofa, UniProt P00761); test: trypsin protease activity blockade – biochemical, quenched peptide fluorescence, cherry-pick, selectivity assay for Rce1 protease inhibitor project, dose response (AID 488789)
# [4] = biological target: T1, CAAX prenyl protease 2 (Saccharomyces cerevisiae S288c, UniProt Q03530); assay type: biochemical
# T1 sequence (Q03530 whole entry): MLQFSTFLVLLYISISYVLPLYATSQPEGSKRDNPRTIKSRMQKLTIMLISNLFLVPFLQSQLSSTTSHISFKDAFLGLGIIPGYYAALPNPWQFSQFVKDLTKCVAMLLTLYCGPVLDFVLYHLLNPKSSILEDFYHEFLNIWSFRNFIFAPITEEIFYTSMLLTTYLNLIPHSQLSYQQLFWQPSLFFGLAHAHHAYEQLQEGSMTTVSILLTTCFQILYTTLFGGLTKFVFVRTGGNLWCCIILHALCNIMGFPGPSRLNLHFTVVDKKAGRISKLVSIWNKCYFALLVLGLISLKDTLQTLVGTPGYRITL
# [5] = biological target: CAAX prenyl protease 1 (Saccharomyces cerevisiae S288c, UniProt P47154); test: yeast CAAX protease Ste24 inhibition – biochemical, S. cerevisiae, plate reader, cherry-pick, dose response (AID 488815)
# [6] = biological target: Lysine-specific demethylase 4C (Homo sapiens, UniProt Q9H3R0); test: inhibition of JMJD2C H3K9me3 demethylation – biochemical, DELFIA europium, cherry-picked samples, dose response (AID 488835); assay type: functional
# [7] = biological target: Lysine-specific demethylase 4A (Homo sapiens, UniProt O75164); test: inhibition of JMJD2A H3K9me3 demethylation – biochemical, DELFIA europium, cherry-picked samples, selectivity assay for GASC-1 inhibitor project, dose response (AID 488840)
# [8] = test system: A-375; test: MITF: Counter assay: A375 proliferation Measured in Cell-Based System Using Plate Reader - 2084-03_Inhibitor_Dose_DryPowder_Activity. [Related pubchem assays (depositor defined):AID488944]; assay type: functional; conditions: Homo sapiens
# [9] = test system: A-375; test: proliferation inhibition in MITF-low A375 cells – cell-based, cherry-pick samples, set 2, counter-screen for MITF modulator project, dose response (AID 540335); assay type: functional; conditions: Homo sapiens
# [10] = biological target: T2, Heat shock factor protein 1 (Mus musculus, UniProt P38532); test: enhancement of HSF1-driven luciferase signal – cell-based, NIH3T3, luminescence, dose retest, confirmation (AID 435004); assay type: functional;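 further: stress induced by proteasome inhibitor MG132 added 30 min after compound; luciferase reporter driven by HSF1 response element in NIH3T3 cells; actives raise luminescence as potentiators of the MG132 stress response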
# T2 sequence (P38532 whole entry): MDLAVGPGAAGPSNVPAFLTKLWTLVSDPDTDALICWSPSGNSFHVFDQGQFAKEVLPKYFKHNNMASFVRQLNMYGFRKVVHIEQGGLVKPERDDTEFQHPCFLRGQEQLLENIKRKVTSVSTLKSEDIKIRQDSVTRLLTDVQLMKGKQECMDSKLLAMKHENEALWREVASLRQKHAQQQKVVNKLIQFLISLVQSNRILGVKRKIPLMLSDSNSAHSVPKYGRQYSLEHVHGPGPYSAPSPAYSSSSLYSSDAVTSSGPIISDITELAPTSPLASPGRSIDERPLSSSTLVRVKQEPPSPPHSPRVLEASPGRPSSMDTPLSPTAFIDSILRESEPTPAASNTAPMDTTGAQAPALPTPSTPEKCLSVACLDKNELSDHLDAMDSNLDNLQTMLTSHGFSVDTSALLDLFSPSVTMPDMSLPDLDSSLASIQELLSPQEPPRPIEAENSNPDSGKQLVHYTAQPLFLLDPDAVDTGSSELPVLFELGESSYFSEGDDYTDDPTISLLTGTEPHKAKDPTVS
# [11] = biological target: T3, Tyrosine-protein phosphatase non-receptor type 22 (Homo sapiens, UniProt Q9Y2R2); assay type: functional
# [12] = biological target: T4, Tyrosine-protein phosphatase non-receptor type 7 (Homo sapiens, UniProt P35236); assay type: functional
# T4 sequence (P35236 whole entry): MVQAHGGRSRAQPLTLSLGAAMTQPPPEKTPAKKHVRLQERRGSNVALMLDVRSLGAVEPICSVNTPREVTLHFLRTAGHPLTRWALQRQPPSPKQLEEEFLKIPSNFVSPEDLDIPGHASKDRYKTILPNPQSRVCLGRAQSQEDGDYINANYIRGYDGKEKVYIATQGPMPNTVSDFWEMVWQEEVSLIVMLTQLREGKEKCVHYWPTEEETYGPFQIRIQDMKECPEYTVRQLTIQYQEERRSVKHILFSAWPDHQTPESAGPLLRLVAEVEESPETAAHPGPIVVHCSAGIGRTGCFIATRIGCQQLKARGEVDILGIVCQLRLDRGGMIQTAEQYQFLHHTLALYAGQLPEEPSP
# [13] = biological target: T3, Tyrosine-protein phosphatase non-receptor type 22; assay type: functional; remark: listed apart in the source
# [14] = test system: HEK293; test: NOD2 signaling inhibitors in MDP-stimulated cells, cell-based, uHTS, luminescence (AID 2001); assay type: functional; conditions: Homo sapiens
# [15] = test system: HEK293; test: cells; assay type: functional, cell-based; conditions: Homo sapiens
# [16] = test system: HEK293; test: inhibition of NOD1-driven NF-kB reporter – cell-based, luminescence, uHTS, primary screen (AID 1578); assay type: functional; conditions: Homo sapiens
# [17] = test system: HEK293; test: cells; assay type: functional, cell-based; conditions: Homo sapiens; remark: listed apart in the source
# [18] = biological target: Glycogen synthase kinase-3 beta (Homo sapiens, UniProt P49841); test: Inhibition of Human GSK-3 beta Activity Measured in Biochemical System Using Microfluidics - 2063-05_Inhibitor_Dose_DryPowder_Activity. [Related pubchem assays (depositor defined):AID2709]
# [19] = test system: HEK293; test: cells; assay type: functional, cell-based; conditions: Homo sapiens; remark: listed apart in the source
# [20] = biological target: Nucleotide-binding oligomerization domain-containing protein 2 (Homo sapiens, UniProt Q9HC29); test: inhibition of NOD2-driven NF-kB reporter – cell-based, luminescence, uHTS, HEK293 (AID 1566); assay type: functional
# [21] = biological target: UDP-galactopyranose mutase (Mycobacterium tuberculosis, UniProt P9WIQ1); test: Inhibitors of Mycobacterium tuberculosis UDP-galactopyranose mutase (UGM) enzyme Measured in Biochemical System Using Plate Reader - 2105-02_Inhibitor_Dose_CherryPick_Activity. [Related pubchem assays (depositor defined):AID504439]
# [22] = blockers of SFLLRN-triggered platelet ATP secretion – cell-based, human platelets, luminescence, dry powder, dose response (AID 493100); assay type: functional
# [23] = Luminescence Cell-Based Dose Response Follow up to Identify Inhibitors of Platelet Dense Granule Release. [Related pubchem assays (depositor defined):AID1663, AID1678, AID1889, AID2519]; assay type: functional
# [24] = test system: NIH3T3; test: mammalian cell viability counter-check – Alamar Blue, fluconazole, dry powder, cytotoxicity control for antifungal drug resistance project, dose response (AID 488809); assay type: functional, cell-based; conditions: Mus musculus
# [25] = test system: Candida albicans; test: Candida growth effect without fluconazole – C. albicans CaCi-2, dry powder, counter-screen for antifungal drug resistance project, dose response (AID 488802); assay type: functional, organism-based
# T3 sequence (Q9Y2R2 whole entry): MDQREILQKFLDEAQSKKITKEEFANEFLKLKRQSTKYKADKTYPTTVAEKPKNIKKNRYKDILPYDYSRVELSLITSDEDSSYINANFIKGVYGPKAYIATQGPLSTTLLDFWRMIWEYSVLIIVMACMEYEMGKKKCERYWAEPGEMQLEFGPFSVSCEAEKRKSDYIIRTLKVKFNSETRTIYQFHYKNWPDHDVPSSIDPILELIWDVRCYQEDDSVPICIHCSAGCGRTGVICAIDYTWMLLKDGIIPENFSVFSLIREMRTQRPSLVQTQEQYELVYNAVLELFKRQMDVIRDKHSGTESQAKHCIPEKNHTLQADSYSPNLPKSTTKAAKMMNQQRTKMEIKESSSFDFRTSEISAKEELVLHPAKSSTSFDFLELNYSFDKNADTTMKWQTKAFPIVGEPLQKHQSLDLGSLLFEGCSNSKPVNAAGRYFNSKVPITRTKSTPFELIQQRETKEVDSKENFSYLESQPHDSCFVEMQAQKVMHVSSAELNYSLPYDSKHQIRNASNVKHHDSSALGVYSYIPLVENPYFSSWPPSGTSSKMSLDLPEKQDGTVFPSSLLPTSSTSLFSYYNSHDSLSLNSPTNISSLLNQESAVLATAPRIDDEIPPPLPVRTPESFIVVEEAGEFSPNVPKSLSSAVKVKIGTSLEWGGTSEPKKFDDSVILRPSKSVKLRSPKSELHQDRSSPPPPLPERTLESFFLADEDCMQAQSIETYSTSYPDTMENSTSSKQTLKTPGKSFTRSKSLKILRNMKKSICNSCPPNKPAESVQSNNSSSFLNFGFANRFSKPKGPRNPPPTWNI
# CAAX prenyl protease 1, sequence (P47154 whole entry): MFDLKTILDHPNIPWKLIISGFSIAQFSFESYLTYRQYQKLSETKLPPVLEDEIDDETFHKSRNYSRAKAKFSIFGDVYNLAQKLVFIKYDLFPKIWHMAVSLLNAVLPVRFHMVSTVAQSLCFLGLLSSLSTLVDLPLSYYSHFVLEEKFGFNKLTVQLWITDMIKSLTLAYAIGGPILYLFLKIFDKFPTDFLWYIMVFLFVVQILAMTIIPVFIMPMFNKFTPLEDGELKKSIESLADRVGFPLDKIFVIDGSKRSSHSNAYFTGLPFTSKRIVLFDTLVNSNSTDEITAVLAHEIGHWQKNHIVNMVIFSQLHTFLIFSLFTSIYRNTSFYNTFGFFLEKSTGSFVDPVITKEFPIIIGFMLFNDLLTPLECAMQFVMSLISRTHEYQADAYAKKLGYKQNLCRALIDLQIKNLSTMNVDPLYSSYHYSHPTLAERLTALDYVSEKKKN
# UDP-galactopyranose mutase, sequence (P9WIQ1 whole entry): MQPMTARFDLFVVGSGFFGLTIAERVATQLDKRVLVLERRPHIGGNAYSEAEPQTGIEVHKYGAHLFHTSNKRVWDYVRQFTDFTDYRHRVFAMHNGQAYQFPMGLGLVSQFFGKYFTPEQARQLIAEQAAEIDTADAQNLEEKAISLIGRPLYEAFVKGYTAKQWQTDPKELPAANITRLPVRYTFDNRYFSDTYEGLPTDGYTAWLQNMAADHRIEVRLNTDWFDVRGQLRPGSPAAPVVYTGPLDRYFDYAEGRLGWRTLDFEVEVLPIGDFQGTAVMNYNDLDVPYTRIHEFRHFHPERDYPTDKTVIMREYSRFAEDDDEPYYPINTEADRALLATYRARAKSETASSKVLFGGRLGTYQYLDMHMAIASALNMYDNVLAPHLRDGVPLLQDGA
# Nucleotide-binding oligomerization domain-containing protein 2, sequence (Q9HC29 whole entry, the tested form may be a part): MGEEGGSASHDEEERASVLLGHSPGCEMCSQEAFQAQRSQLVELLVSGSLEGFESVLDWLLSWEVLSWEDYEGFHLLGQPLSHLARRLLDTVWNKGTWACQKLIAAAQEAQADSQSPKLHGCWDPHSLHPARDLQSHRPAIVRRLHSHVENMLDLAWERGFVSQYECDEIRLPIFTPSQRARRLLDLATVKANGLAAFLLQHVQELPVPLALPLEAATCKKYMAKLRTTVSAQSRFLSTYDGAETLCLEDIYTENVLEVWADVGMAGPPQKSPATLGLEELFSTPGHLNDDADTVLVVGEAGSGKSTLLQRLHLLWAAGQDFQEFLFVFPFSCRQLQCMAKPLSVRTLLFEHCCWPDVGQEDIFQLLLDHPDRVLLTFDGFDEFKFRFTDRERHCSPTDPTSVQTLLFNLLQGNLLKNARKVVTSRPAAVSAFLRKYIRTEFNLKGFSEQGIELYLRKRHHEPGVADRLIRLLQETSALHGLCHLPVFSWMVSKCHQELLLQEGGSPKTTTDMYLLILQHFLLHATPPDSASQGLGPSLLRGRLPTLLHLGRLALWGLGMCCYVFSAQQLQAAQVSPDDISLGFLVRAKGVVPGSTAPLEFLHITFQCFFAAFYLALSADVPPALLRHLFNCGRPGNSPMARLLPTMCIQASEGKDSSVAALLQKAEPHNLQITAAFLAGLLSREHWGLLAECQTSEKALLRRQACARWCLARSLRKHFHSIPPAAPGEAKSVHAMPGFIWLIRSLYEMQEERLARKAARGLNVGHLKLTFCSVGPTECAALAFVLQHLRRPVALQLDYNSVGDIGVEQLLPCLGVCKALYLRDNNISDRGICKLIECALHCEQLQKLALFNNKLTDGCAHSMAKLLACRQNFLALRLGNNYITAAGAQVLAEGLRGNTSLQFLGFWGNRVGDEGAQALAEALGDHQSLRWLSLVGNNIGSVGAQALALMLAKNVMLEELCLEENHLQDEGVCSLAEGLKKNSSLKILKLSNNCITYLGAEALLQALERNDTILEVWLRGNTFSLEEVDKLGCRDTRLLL
# Lysine-specific demethylase 4C, sequence (Q9H3R0 whole entry): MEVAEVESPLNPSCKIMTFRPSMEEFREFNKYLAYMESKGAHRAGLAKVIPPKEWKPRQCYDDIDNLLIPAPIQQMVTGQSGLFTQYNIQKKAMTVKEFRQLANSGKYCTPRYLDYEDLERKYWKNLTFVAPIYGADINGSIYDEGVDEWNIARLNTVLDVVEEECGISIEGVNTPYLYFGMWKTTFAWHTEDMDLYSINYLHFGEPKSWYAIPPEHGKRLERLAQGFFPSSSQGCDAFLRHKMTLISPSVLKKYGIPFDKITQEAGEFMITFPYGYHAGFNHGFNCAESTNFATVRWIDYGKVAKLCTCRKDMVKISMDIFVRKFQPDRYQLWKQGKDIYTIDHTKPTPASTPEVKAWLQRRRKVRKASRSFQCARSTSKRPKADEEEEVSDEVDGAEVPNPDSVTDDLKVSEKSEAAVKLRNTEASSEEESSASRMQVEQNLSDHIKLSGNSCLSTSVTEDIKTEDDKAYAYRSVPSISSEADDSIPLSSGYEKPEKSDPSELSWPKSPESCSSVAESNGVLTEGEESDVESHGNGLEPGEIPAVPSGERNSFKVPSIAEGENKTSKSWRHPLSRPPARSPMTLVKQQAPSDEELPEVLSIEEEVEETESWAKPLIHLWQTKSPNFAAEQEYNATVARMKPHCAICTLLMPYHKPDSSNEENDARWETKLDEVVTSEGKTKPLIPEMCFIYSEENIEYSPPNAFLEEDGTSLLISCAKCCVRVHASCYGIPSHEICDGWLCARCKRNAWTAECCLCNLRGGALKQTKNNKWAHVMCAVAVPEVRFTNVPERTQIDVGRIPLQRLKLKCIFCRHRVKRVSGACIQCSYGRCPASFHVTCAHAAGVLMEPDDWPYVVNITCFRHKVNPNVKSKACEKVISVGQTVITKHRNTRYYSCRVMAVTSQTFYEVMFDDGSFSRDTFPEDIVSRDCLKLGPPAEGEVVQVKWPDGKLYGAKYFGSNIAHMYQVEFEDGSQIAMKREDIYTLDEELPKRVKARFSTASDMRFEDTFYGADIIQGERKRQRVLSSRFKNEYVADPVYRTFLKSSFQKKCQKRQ
# Trypsin, sequence (P00761 whole entry): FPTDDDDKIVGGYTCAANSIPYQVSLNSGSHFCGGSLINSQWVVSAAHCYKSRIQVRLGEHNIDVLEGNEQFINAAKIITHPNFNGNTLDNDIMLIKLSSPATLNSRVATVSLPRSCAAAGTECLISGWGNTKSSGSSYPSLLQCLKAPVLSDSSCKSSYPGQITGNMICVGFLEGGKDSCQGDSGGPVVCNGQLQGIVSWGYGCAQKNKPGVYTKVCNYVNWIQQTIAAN
# Lysine-specific demethylase 4A, sequence (O75164 whole entry): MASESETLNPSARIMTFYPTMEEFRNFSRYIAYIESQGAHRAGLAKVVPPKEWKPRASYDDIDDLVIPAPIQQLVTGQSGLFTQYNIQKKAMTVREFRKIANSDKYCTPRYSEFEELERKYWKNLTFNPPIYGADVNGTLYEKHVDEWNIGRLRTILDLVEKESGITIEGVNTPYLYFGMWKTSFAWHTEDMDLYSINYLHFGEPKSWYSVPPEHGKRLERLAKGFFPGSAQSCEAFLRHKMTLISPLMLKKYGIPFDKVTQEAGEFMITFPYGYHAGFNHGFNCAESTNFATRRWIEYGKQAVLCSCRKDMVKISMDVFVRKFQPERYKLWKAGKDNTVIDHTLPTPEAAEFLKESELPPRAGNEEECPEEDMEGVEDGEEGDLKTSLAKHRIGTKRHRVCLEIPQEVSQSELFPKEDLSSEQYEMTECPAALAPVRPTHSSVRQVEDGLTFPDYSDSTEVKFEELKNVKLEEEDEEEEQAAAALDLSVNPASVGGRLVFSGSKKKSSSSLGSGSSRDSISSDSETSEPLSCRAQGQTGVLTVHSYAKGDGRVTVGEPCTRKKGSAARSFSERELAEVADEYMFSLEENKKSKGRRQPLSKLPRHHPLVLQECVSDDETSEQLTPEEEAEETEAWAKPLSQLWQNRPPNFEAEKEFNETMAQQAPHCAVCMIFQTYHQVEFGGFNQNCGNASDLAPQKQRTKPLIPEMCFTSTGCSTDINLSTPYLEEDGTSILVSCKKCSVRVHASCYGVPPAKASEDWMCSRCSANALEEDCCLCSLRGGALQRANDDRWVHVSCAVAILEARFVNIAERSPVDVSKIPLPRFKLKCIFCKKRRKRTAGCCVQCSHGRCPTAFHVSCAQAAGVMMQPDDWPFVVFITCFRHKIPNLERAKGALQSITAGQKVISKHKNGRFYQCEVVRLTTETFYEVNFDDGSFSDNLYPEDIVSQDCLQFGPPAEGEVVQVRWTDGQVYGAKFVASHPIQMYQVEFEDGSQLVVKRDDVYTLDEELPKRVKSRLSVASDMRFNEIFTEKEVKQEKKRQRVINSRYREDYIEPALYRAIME
structure (smiles),measurement,setting,value
CCOP1(=O)OCC2OC(n3cnc4c(N)ncnc43)C(O)C2O1 (stereo not given),EC50,[1],3.75 µM (active)
same,EC50,[2],2.68 µM (active)
Cc1cc(C)n2cc(CSc3ncccc3C(=O)O)nc2n1,AC50,[3],10.8 µM (active)
same,AC50,[4],57.7 µM (active)
same,AC50,[5],6.59 µM (active)
CCC(Sc1nc(N)c(NC(=O)c2ccc(Br)o2)c(O)n1)C(=O)O (stereo not given),AC50,[6],5.06 µM (active)
same,AC50,[7],17.5 µM (active)
c1cc(CSc2nnc(-c3ccc4c(c3)OCO4)o2)ccn1,AC50,[8],> 35 µM (active)
same,AC50,[9],> 35 µM (active)
O=C(CC1C(=O)N(Cc2ccccc2)C(=S)N1CCN1CCOCC1)Nc1ccc(F)cc1 (stereo not given),EC50,[10],> 260 µM (inactive)
same,IC50,[11],> 79.4 µM (inactive)
same,IC50,[12],> 79.4 µM (inactive)
same,IC50,[13],> 79.4 µM (inactive)
Cc1ccc(-n2c(C)c([N+](=O)[O-])c3ccc(O)cc32)cc1,IC50,[14],1.18 µM (active)
same,IC50,[15],> 20 µM (inactive)
same,EC50,[16],16 µM (active)
same,IC50,[17],> 20 µM (inactive)
same,AC50,[18],< 0.068 µM (active)
same,IC50,[19],1.05 µM (active)
same,EC50,[20],> 20 µM (inactive)
CCCCCCN1C=CC=C/C1=C\C=C(C#N)C#N,AC50,[21],44.1 µM (active)
O=C(Nc1ccccc1)c1ccccc1Br,AC50,[22],5.98 µM (active)
same,EC50,[23],1.97 µM (active)
CCCNC(=O)Cn1nc(-c2ccccc2)c2cc(Cl)ccc21,AC50,[24],28.9 µM (active)
same,AC50,[25],83.4 µM (active)
